Laboratory results published in PubChem BioAssay AID1845219 (Molecular Pharmacology Branch, DTP, NCI, 2023).

Test system: SYO-1 tumor spheroids, viability % test/control
Test: Anticancer human tumor SYO-1 cell line growth inhibition;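 also: spheroids exposed to agents for 7 days before viability read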;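 as to viability, T/C: 100% = DMSO vehicle control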
Details: spheroids with HUVEC and MSC; for IC50: curve of first compound; for viability, T/C: stronger effect = lower value
How it was run: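 Single agents and combinations were tested on spheroids built from tumor cells plus HUVEC and hMSC, at half-log dilutions starting at or near clinical Cmax, else 10 microM; final DMSO 0.25% (v/v).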

[1] = second compound 0.003 µM, first compound 0.0316 µM
[2] = second compound 0.003 µM, first compound 0.1 µM
[3] = second compound 0.003 µM, first compound 0.316 µM
[4] = second compound 0.003 µM, first compound 1 µM
[5] = second compound 0.003 µM, first compound 3.16 µM
[6] = second compound 0.003 µM, first compound 10 µM
[7] = second compound 0.00949 µM, first compound 0.0316 µM
[8] = second compound 0.00949 µM, first compound 0.1 µM
[9] = second compound 0.00949 µM, first compound 0.316 µM
[10] = second compound 0.00949 µM, first compound 1 µM
[11] = second compound 0.00949 µM, first compound 3.16 µM
[12] = second compound 0.00949 µM, first compound 10 µM
[13] = second compound 0.03 µM, first compound 0.0316 µM
[14] = second compound 0.03 µM, first compound 0.1 µM
[15] = second compound 0.03 µM, first compound 0.316 µM
[16] = second compound 0.03 µM, first compound 1 µM
[17] = second compound 0.03 µM, first compound 3.16 µM
[18] = second compound 0.03 µM, first compound 10 µM
[19] = second compound 0.0949 µM, first compound 0.0316 µM
[20] = second compound 0.0949 µM, first compound 0.1 µM
[21] = second compound 0.0949 µM, first compound 0.316 µM
[22] = second compound 0.0949 µM, first compound 1 µM
[23] = second compound 0.0949 µM, first compound 3.16 µM
[24] = second compound 0.0949 µM, first compound 10 µM
[25] = second compound 0.3 µM, first compound 0.0316 µM
[26] = second compound 0.3 µM, first compound 0.1 µM
[27] = second compound 0.3 µM, first compound 0.316 µM
[28] = second compound 0.3 µM, first compound 1 µM
[29] = second compound 0.3 µM, first compound 3.16 µM
[30] = second compound 0.3 µM, first compound 10 µM

In the case of `CC(C)n1c(=O)n(C)c2cnc3cc(F)c(-c4ccc(OCCCN5CCCCC5)nc4)cc3c21` + CC[C@@]1(O)C(=O)OCc2c1cc1n(c2=O)Cc2cc3c(CN(C)C)c(O)ccc3nc2-1, the IC50 (second compound 0.003 µM) is reported as under 31.6 nM, the IC50 (second compound 0.00949 µM) is reported as under 31.6 nM and the IC50 (second compound 0.03 µM) is reported as under 31.6 nM. For the same compound, the IC50 (second compound 0.0949 µM) was under 31.6 nM, the IC50 (second compound 0.3 µM) was under 31.6 nM and the viability, T/C [1] was 7.3%. For the same compound, the viability, T/C [2] was 7.98%, the viability, T/C [3] was 8.08% and the viability, T/C [4] was 5.73%. For the same compound, the viability, T/C [5] was 1.45%, the viability, T/C [6] was 0.47% and the viability, T/C [7] was 2.88%. For the same compound, the viability, T/C [8] was 3.1%, the viability, T/C [9] was 2.8% and the viability, T/C [10] was 2.56%. It also gave a viability, T/C [11] of 1.27%, a viability, T/C [12] of 0.3% and a viability, T/C [13] of 2.53%. The viability, T/C [14] was 2.44%, the viability, T/C [15] was 2.23% and the viability, T/C [16] was 2.14%. For the same compound, the viability, T/C [17] was 1.02%, the viability, T/C [18] was 0.26% and the viability, T/C [19] was 1.61%. It also gave a viability, T/C [20] of 1.69%, a viability, T/C [21] of 1.67% and a viability, T/C [22] of 1.34%. It also gave a viability, T/C [23] of 1.18%, a viability, T/C [24] of 0.25% and a viability, T/C [25] of 1.48%. It also gave a viability, T/C [26] of 1.31%, a viability, T/C [27] of 1.3% and a viability, T/C [28] of 1.31%. For the same compound, the viability, T/C [29] was 0.93% and the viability, T/C [30] was 0.28%.
With `CC1COCCN1c1cc(-c2ccnn2C)c2ccnc(-c3ccn[nH]3)c2n1` (stereo not given) + CC[C@@]1(O)C(=O)OCc2c1cc1n(c2=O)Cc2cc3c(CN(C)C)c(O)ccc3nc2-1 the IC50 (second compound 0.003 µM) was under 31.6 nM, the IC50 (second compound 0.00949 µM) was under 31.6 nM and the IC50 (second compound 0.03 µM) was under 31.6 nM. For the same compound, the IC50 (second compound 0.0949 µM) was under 31.6 nM, the IC50 (second compound 0.3 µM) was under 31.6 nM and the viability, T/C [1] was 2.41%. The viability, T/C [2] was 1.6%, the viability, T/C [3] was 1.52% and the viability, T/C [4] was 1.01%. For the same compound, the viability, T/C [5] was 0.46%, the viability, T/C [6] was 0.49% and the viability, T/C [7] was 1.89%. The viability, T/C [8] was 1.76%, the viability, T/C [9] was 1.42% and the viability, T/C [10] was 0.94%. For the same compound, the viability, T/C [11] was 0.47%, the viability, T/C [12] was 0.42% and the viability, T/C [13] was 1.75%. The viability, T/C [14] was 1.64%, the viability, T/C [15] was 1.18% and the viability, T/C [16] was 0.74%. It also gave a viability, T/C [17] of 0.43%, a viability, T/C [18] of 0.42% and a viability, T/C [19] of 1.31%. For the same compound, the viability, T/C [20] was 1.48%, the viability, T/C [21] was 0.96% and the viability, T/C [22] was 0.68%. For the same compound, the viability, T/C [23] was 0.44%, the viability, T/C [24] was 0.41% and the viability, T/C [25] was 1.79%. The viability, T/C [26] was 1.55%, the viability, T/C [27] was 1.05% and the viability, T/C [28] was 0.66%. The viability, T/C [29] was 0.47% and the viability, T/C [30] was 0.49%.
Work on `COc1cc(C)[nH]c(=O)c1CN1CCc2c(Cl)cc(C(OC)C3COC3)c(Cl)c2C1=O` (stereo not given) + CC[C@@]1(O)C(=O)OCc2c1cc1n(c2=O)Cc2cc3c(CN(C)C)c(O)ccc3nc2-1 yielded an IC50 (second compound 0.003 µM) of 777 nM, an IC50 (second compound 0.00949 µM) of under 31.6 nM and an IC50 (second compound 0.03 µM) of under 31.6 nM. The IC50 (second compound 0.0949 µM) was under 31.6 nM, the IC50 (second compound 0.3 µM) was under 31.6 nM and the viability, T/C [1] was 99.8%. It also gave a viability, T/C [2] of 96.1%, a viability, T/C [3] of 71.5% and a viability, T/C [4] of 44.5%. For the same compound, the viability, T/C [5] was 33.9%, the viability, T/C [6] was 32.8% and the viability, T/C [7] was 22.7%. It also gave a viability, T/C [8] of 18.1%, a viability, T/C [9] of 8.42% and a viability, T/C [10] of 5.82%. It also gave a viability, T/C [11] of 5.77%, a viability, T/C [12] of 4.94% and a viability, T/C [13] of 1.81%. For the same compound, the viability, T/C [14] was 2.29%, the viability, T/C [15] was 2.26% and the viability, T/C [16] was 2.14%. It also gave a viability, T/C [17] of 2.28%, a viability, T/C [18] of 2.42% and a viability, T/C [19] of 1.63%. The viability, T/C [20] was 1.59%, the viability, T/C [21] was 1.59% and the viability, T/C [22] was 1.68%. It also gave a viability, T/C [23] of 1.72%, a viability, T/C [24] of 1.9% and a viability, T/C [25] of 2%. It also gave a viability, T/C [26] of 2.17%, a viability, T/C [27] of 2.06% and a viability, T/C [28] of 1.88%. The viability, T/C [29] was 1.89% and the viability, T/C [30] was 2.12%.
For `COc1ccc([C@@H](O)c2cc(-c3ncnc4cc(N5CCOCC5)ccc34)c(F)cc2Cl)nn1` + CC[C@@]1(O)C(=O)OCc2c1cc1n(c2=O)Cc2cc3c(CN(C)C)c(O)ccc3nc2-1, the IC50 (second compound 0.003 µM) was 1770 nM, the IC50 (second compound 0.00949 µM) was under 31.6 nM and the IC50 (second compound 0.03 µM) was under 31.6 nM. It also gave an IC50 (second compound 0.0949 µM) of under 31.6 nM, an IC50 (second compound 0.3 µM) of under 31.6 nM and a viability, T/C [1] of 94.3%. The viability, T/C [2] was 99.1%, the viability, T/C [3] was 94.7% and the viability, T/C [4] was 87.6%. The viability, T/C [5] was 11.8%, the viability, T/C [6] was 2.63% and the viability, T/C [7] was 41.7%. The viability, T/C [8] was 33.1%, the viability, T/C [9] was 44.8% and the viability, T/C [10] was 17.1%. For the same compound, the viability, T/C [11] was 1.57%, the viability, T/C [12] was 0.79% and the viability, T/C [13] was 1.67%. The viability, T/C [14] was 1.43%, the viability, T/C [15] was 1.42% and the viability, T/C [16] was 0.87%. The viability, T/C [17] was 0.63%, the viability, T/C [18] was 0.71% and the viability, T/C [19] was 1.2%. For the same compound, the viability, T/C [20] was 1.26%, the viability, T/C [21] was 1.18% and the viability, T/C [22] was 1.01%. For the same compound, the viability, T/C [23] was 0.75%, the viability, T/C [24] was 0.54% and the viability, T/C [25] was 1.43%. For the same compound, the viability, T/C [26] was 1.86%, the viability, T/C [27] was 1.46% and the viability, T/C [28] was 0.88%. The viability, T/C [29] was 0.2% and the viability, T/C [30] was 0.21%.
`[2H]c1nc(C)nc([2H])c1-c1cc(NC[C@@H](C)c2cccc3c(C(=O)NC)ccnc23)ncn1` + CC[C@@]1(O)C(=O)OCc2c1cc1n(c2=O)Cc2cc3c(CN(C)C)c(O)ccc3nc2-1 was tested, and the IC50 (second compound 0.003 µM) was over 10000 nM, the IC50 (second compound 0.00949 µM) was under 31.6 nM and the IC50 (second compound 0.03 µM) was under 31.6 nM. The IC50 (second compound 0.0949 µM) was under 31.6 nM, the IC50 (second compound 0.3 µM) was under 31.6 nM and the viability, T/C [1] was 92.5%. It also gave a viability, T/C [2] of 99.4%, a viability, T/C [3] of 94.6% and a viability, T/C [4] of 93%. The viability, T/C [5] was 92.3%, the viability, T/C [6] was 93.7% and the viability, T/C [7] was 25.9%. It also gave a viability, T/C [8] of 31.1%, a viability, T/C [9] of 28.9% and a viability, T/C [10] of 20%. The viability, T/C [11] was 19.2%, the viability, T/C [12] was 17.2% and the viability, T/C [13] was 1.86%. For the same compound, the viability, T/C [14] was 2.19%, the viability, T/C [15] was 1.77% and the viability, T/C [16] was 2.01%. The viability, T/C [17] was 1.73%, the viability, T/C [18] was 1.75% and the viability, T/C [19] was 1.57%. The viability, T/C [20] was 1.61%, the viability, T/C [21] was 1.6% and the viability, T/C [22] was 1.39%. For the same compound, the viability, T/C [23] was 1.9%, the viability, T/C [24] was 1.55% and the viability, T/C [25] was 1.71%. It also gave a viability, T/C [26] of 1.76%, a viability, T/C [27] of 2.05% and a viability, T/C [28] of 1.52%. It also gave a viability, T/C [29] of 1.73% and a viability, T/C [30] of 2.12%.
